From publication PMC6207618, “The GbsR Family of Transcriptional Regulators: Functional Characterization of the OpuAR Repressor” (Frontiers in Microbiology, 2018) come the findings set out here.

Where two headings read alike, the source gives them in different places.

Usually Kd stands for the concentration at which binding is half-saturated.

Test [1] concerns the target OpuAR Y^94F (Bacillus infantis, UniProt U5LJR5, Y94F). Kind of test: biochemical. The format is binding. An excerpt:
(§1) The coding region of opuAR was amplified from chromosomal DNA of B. infantis NRRL B-14911 ([Massilamany et al., 2016]) using primers opuAR fwd and opuAR rev (Supplementary Table S2) harboring in their 5′-regions recognition sites for the restriction enzyme BsaI. The resulting PCR DNA fragment was then cut with BsaI and cloned into the expression vector pASK-IBA3plus (IBA, Göttingen, Germany) that had been linearized with BsaI; the obtained plasmids were named pMP_AR1 (Supplementary Table S3). Mutant derivatives of the opuAR gene were obtained using the Q5 Site-Directed Mutagenesis Kit (New England BioLabs, Ipswich, MA, United States) and a set of customized mutagenic primers (Supplementary Table S2). The Sanger sequencing method was used to verify the DNA sequence of the chromosomal insert of the parental opuAR^+ overexpression plasmid pMP_AR1 and of its derivatives carrying mutant opuAR genes. DNA sequencing was conducted by Microsynth (Lindau, Germany).
(§2) Overproduction of the OpuAR repressor protein and its mutant derivatives was carried out in the E. coli B strain BL21 harboring plasmid pMP_AR1, a derivative of the expression vector pASK-IBA3plus (IBA, Göttingen, Germany) (Supplementary Table S3). […] De-repression of P-tet promoter activity is achieved by adding the synthetic inducer AHT to the growth medium. Cultures of the E. coli B. strain BL21 (pMP_AR1) were inoculated (to a OD578 of 0.1) from pre-cultures prepared in MMA ([Miller, 1972]) supplemented with 0.5% glucose (wt/vol) as the carbon source, 0.5% casamino acids (wt/vol), 1 mg l^-1 thiamine, and 1 mM MgSO4. The cultures also contained ampicillin (100 μg ml^-1) to select for the presence of plasmid pMP_AR1 (or its mutant derivatives) and they were grown at 37°C. When the main cultures reached an OD578 of 0.5, enhanced expression of the opuAR gene from P-tet was induced by the addition of AHT to a final concentration of 0.2-μg ml^-1. Cells were grown for an additional 2 h, before they were harvested by centrifugation (at 4°C at 4,800 × g for 20 min). The cell pellets were re-suspended in lysis buffer [100 mM Tris-HCl (pH 7.5), 2.5% glycerol, 2 mM dithiothreitol, 0.4 mM EDTA, 0.5 mM phenylmethylsulfonyl fluoride (PMSF), 0.5 mM benzamidine] and the cells were then disrupted by passing them through a French pressure cell as detailed previously ([Nau-Wagner et al., 2012]). Cleared cell lysates were prepared by ultra-centrifugation (at 4°C at 100,000 × g for 35 min) before the OpuAR-Strep-tag II recombinant protein was purified by affinity chromatography ([Nau-Wagner et al., 2012]) on streptactin affinity resin according to the manufacturers specifications (IBA, Göttingen, Germany). Mutant derivatives of the OpuAR protein were overproduced and purified as described above for the wild-type protein.
(§3) The dissociation constants of OpuAR for choline and glycine betaine were determined by intrinsic tryptophan fluorescence spectroscopy as described previously using a Carry Eclips fluorescence spectrometer (Varian, Surry, United Kingdom) ([Pittelkow et al., 2011]; [Nau-Wagner et al., 2012]).

For test [2], the target named is OpuAR R^100F (Bacillus infantis, UniProt U5LJR5, R100F). The experiment in a line: biochemical. The format is binding.
Chain of OpuAR R^100F (U5LJR5 entry or part of it R100F): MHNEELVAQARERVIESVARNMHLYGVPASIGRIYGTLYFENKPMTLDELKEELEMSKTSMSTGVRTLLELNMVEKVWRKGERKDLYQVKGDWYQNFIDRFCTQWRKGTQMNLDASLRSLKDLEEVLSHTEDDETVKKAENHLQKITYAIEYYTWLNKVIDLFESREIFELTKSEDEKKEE
Text: as §1, §2, §3

For test [3], the target named is OpuAR W^93F (Bacillus infantis, UniProt U5LJR5, W93F). Kind of test: biochemical. The format is binding.
Chain of OpuAR W^93F (U5LJR5 entry or part of it W93F): as the sequence (U5LJR5 entry or part of it R100F) above
Text: as §1, §2, §3

The target of test [4] is OpuAR N^96F (Bacillus infantis, UniProt U5LJR5, N96F). The experiment in a line: biochemical. The format is binding.
Chain of OpuAR N^96F (U5LJR5 entry or part of it N96F): as the sequence (U5LJR5 entry or part of it R100F) above
Text: as §1, §2, §3

Test [5] has as its target OpuAR Y^94F/R^100F (Bacillus infantis, UniProt U5LJR5, R100F/Y94F). The experiment in a line: biochemical. The format is binding. The following applies: for Improvement of binding (Kd) relative to wild-type OpuAR: OpuAR double variant Y94F/R100F vs wild type.
Text: as §1, §2, §3

The test system of test [6] is B. infantis NRRL B-14911. The experiment in a line: Growth of B. infantis with glycine betaine as sole carbon source. The settings on record: basal medium, 33.24 mM as sole carbon source, 46 h, 37°C. The format is cell-based, Bacillus infantis. The procedure: Supplementary Figure S7 │B. infantis cannot use glycine betaine as carbon source.
Cultures of B. infantis NRRL B-14911were grown in basal medium supplemented with either glucose (27.7 mM final concentration) or glycine betaine (33.24 mM final concentration) as the sole carbon source. Growth yields were measured after 46 hours of incubation at 37 °C.
Cultures without the addition of a carbon source served as control.
(1 picture or pasted object on this page, not shown here)

In test [7] the test system is opuAA-treA reporter activity. The experiment in a line: opuAA-treA reporter fusion TreA enzyme activity assay. The settings on record: strain STHB10, SMM with 1.2 M NaCl, dose-response 5 to 300 μM. The format is cell-based, Bacillus subtilis.

Chain of OpuAR Y^94F/R^100F (U5LJR5 entry or part of it Y94F/R100F): as the sequence (U5LJR5 entry or part of it R100F) above
Chain of OpuAR Y^94F (U5LJR5 entry or part of it Y94F): as the sequence (U5LJR5 entry or part of it R100F) above

Take `C[N+](C)(C)CCO` [choline]: the equilibrium dissociation constant (Kd) in test [1] was 240 ± 33 µM; in test [2], 100 ± 15 µM; in test [3], 210 ± 33 µM; in test [4], 262 ± 34 µM; in test [5], 61 ± 11 µM. Also, the “Improvement of binding (Kd) relative to wild-type OpuAR” value in test [5] was “about threefold”.

As for `C[N+](C)(C)CC(=O)[O-]` [glycine betaine], the Kd came to 293 ± 37 µM in test [1] (OpuAR variant Y94F, read-out: Kd); 303 ± 40 µM in test [2] (OpuAR variant R100F, read-out: Kd); 224 ± 24 µM in test [3] (OpuAR variant W93F, read-out: Kd); 254 ± 39 µM in test [4] (OpuAR variant N96F, read-out: Kd); 70 ± 12 µM in test [5] (OpuAR double variant Y94F/R100F, read-out: Kd). In test [5], the “Improvement of binding (Kd) relative to wild-type OpuAR” value is “fourfold”. Also, the “Use as carbon source / nutrient (growth yield)” value in test [6] was “cannot use”. In addition, the “Concentration in growth medium triggering a noticeable increase in transcriptional activity” value in test [7] worked out at 5 µM. In addition, in test [7], the “Concentration sufficient to fully induce expression of the reporter fusion” value is 75 µM.
